Results on 16 compounds are retold here after US9067937B2 (priority 2012, dated 2015).

In one test the target is MELK (Homo sapiens, UniProt Q14680). Description: Kinase assay (IMAP fluorescence polarization, FITC-labeled histone H3 peptide). The format is biochemical. The note with it: 50 micro-M ATP. On the procedure: MELK activity was determined in the presence or absence of compounds using fluorescein isothiocyanate-labeled (FITC-labeled) histone H3 peptide as a substrate. […] The serially diluted compounds, 0.8 ng/micro-L […] (Carna Biosciences) and 100 nM FITC-labeled histone H3 peptide were reacted in a reaction buffer (20 mM HEPES, 0.01% Tween-20, 0.3 mM MgCl2, 2 mM dithiothreitol, 50 micro-M ATP, pH 7.4) at room temperature for 1 hour. The reaction was stopped by the addition of three fold assay volume of progressive binding solution. […] IC50 values were calculated by nonlinear four parameter fit using SigmaPlot, version 10.0 (Systat Software, Inc.).
MELK, sequence (Q14680 whole entry, looked up): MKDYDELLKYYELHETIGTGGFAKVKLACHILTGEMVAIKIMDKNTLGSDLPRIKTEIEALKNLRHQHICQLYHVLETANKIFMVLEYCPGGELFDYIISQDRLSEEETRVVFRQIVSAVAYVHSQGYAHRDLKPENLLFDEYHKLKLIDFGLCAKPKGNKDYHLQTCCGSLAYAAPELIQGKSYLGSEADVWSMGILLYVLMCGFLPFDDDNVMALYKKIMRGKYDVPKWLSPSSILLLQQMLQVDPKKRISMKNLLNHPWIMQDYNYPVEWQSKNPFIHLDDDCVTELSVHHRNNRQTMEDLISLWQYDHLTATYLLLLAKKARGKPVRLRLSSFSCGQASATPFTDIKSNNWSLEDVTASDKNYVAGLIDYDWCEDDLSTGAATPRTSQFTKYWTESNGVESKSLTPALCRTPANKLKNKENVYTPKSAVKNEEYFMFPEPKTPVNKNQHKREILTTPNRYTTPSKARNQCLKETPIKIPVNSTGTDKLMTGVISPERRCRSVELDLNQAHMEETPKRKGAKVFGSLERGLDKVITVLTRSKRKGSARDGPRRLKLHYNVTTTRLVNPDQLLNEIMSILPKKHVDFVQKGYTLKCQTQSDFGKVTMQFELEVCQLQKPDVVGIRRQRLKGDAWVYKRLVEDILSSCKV
For orientation: Polarisation of emitted light reports the rotation of a fluorescent probe.

Another test deals with A549 cells. Description: Cell-based assay, anti-proliferative activity (Cell Counting Kit-8, 72 hours). Particulars: read-out: IC50 (μM) (A549). Set-up: species or system human. On the procedure: (§1) Active candidate inhibitors against MELK were evaluated for their target-specific cytotoxicity using 22Rv1, T47D, A549, DU4475 and HT-1197 cells was used for negative control. 100 micro-L of cell suspension was seeded onto 96-well microtiter plate (ViewPlate-96FTC, PerkinElmer). The initial cell concentration of 22Rv1, T47D, A549, DU4475, and HT1197 were 3,000 cells/well, 2,000 cells/well and 2,500 cells/well, respectively. Cellular growth was determined using Cell Counting Kit-8 (DOJINDO) at 72 hours after the exposure of the candidate inhibitors. […] Accurate IC50 values were calculated as described previously.
(Formazan colour is commonly taken as a measure of viable cells.)

Another test relates to 22Rv1 cells. The description is as above. Set-up: species or system human. The note with it: read-out: IC50 (μM) (22Rvl). On the procedure: as §1
The next test deals with T47D cells. The description is as above. Also noted: species or system human. The note with it: read-out: IC50 (μM) (T47D). On the procedure:
as §1

The next test deals with DU4475 cells. The description is as above. Also noted: species or system human. Particulars: read-out: IC50 (μM) (DU4475). Here is the method: as §1
A further test concerns HT1197 cells. The test is described as follows: Cell-based assay, anti-proliferative activity, MELK-negative control (Cell Counting Kit-8, 72 hours). Set-up: species or system human. Particulars: read-out: IC50 (μM) (HTll97). On the procedure:
100 micro-L of cell suspension was seeded onto 96-well microtiter plate (ViewPlate-96FTC, PerkinElmer). The initial cell concentration of 22Rv1, T47D, A549, DU4475, and HT1197 were 3,000 cells/well, 2,000 cells/well and 2,500 cells/well, respectively. Cellular growth was determined using Cell Counting Kit-8 (DOJINDO) at 72 hours after the exposure of the candidate inhibitors. […] Accurate IC50 values were calculated as described previously.

The mark [1] stands for this setting: HT1197 cells (MELK-negative control), 72 hours.

Counter-ions that a name gives are not always drawn. Like-named read-outs stand apart in the source and are kept apart here.

With “1-[6-(3,5-Dichloro-4-hydroxyphenyl)-4-(trans-4-hydroxycyclohexylamino)-1,5-naphthyridin-3-yl]-ethanone hydrochloride [Example 91]”, the IC50 – broadly, the concentration that gives 50% inhibition – on MELK amounted to 0.015 µM; in the test on A549 cells (A549 cells, 72 hours), 0.048 µM; in the test with 22Rv1 cells (22Rv1 cells, 72 hours) it was 0.072 µM; in the test with T47D cells (T47D cells, 72 hours), 0.038 µM; in the test with DU4475 cells (DU4475 cells, 72 hours), 0.016 µM; in the test with HT1197 cells (setting [1]) it was 0.33 µM.
As to “1-[6-(3-Chloro-5-fluoro-4-hydroxyphenyl)-4-(trans-4-hydroxycyclohexylamino)-1,5-naphthyridin-3-yl]ethanone hydrochloride [Example 92]”, the IC50 was determined as 0.012 µM against MELK; 0.053 µM in the test on A549 cells (A549 cells, 72 hours); 0.061 µM in the test with 22Rv1 cells (22Rv1 cells, 72 hours); 0.036 µM in the test with T47D cells (T47D cells, 72 hours); 0.018 µM in the test on DU4475 cells (DU4475 cells, 72 hours); 0.53 µM in the test with HT1197 cells (setting [1]).
With `CC(=O)c1cnc2ccc(Cl)nc2c1N[C@H]1CC[C@H](CN(C)C)CC1` [Example 1, 1-(6-Chloro-4-{trans-4-[(dimethylamino)methyl]cyclohexylamino}-1,5-naphthyridin-3-yl)-ethanone], the IC50 against MELK turned out to be 0.31 µM; in the test with A549 cells (Homo sapiens, A549, 72 h), 2.7 µM; in the test with 22Rv1 cells (Homo sapiens, 22Rv1, 72 h) it was 5 µM; in the test with T47D cells (Homo sapiens, T47D, 72 h), 5.3 µM; in the test on DU4475 cells (Homo sapiens, DU-4475, 72 h), 2.5 µM; in the test with HT1197 cells (Homo sapiens, HT1197, 72 h), 10 µM.
In the case of `CC(=O)c1cnc2ccc(-c3cc(Cl)c(O)c(Cl)c3)nc2c1N[C@H]1CC[C@H](N(C)C)CC1` [Example 2, 1-{6-(3,5-Dichloro-4-hydroxyphenyl)-4-[trans-4-(dimethylamino)cyclohexylamino]-1,5-naphthyridin-3-yl}ethanone dihydrochloride], the IC50 came to 0.0003 µM against MELK; 0.004 µM in the test with A549 cells (Homo sapiens, A549, 72 h); 0.0032 µM with 22Rv1 cells (Homo sapiens, 22Rv1, 72 h); 0.0018 µM with T47D cells (Homo sapiens, T47D, 72 h); 0.0015 µM with DU4475 cells (Homo sapiens, DU-4475, 72 h); 0.19 µM in the test on HT1197 cells (Homo sapiens, HT1197, 72 h).
For the compound `CC(=O)c1cnc2ccc(-c3cc(F)c(O)c(Cl)c3)nc2c1N[C@H]1CC[C@H](N(C)C)CC1` [Example 3, 1-{6-(3-Chloro-5-fluoro-4-hydroxyphenyl)-4-[trans-4-(dimethylamino)cyclohexylamino]-1,5-naphthyridin-3-yl}ethanone dihydrochloride], the IC50 on MELK worked out at 0.0012 µM; in the test on A549 cells (Homo sapiens, A549, 72 h) it was 0.0091 µM; in the test on 22Rv1 cells (Homo sapiens, 22Rv1, 72 h), 0.006 µM; in the test with T47D cells (Homo sapiens, T47D, 72 h), 0.0026 µM; in the test on DU4475 cells (Homo sapiens, DU-4475, 72 h), 0.0033 µM; in the test with HT1197 cells (Homo sapiens, HT1197, 72 h), 0.39 µM.
As for `CN(C)C[C@H]1CC[C@H](Nc2c(C(=O)C3CC3)cnc3ccc(-c4cc(Cl)c(O)c(Cl)c4)nc23)CC1` [Example 4, Cyclopropyl(6-(3,5-dichloro-4-hydroxyphenyl)-4-{trans-4-[(dimethylamino)methyl]-cyclohexylamino}-1,5-naphthyridin-3-yl)methanone dihydrochloride], the IC50 came to 0.0005 µM on MELK; 0.0062 µM with A549 cells (Homo sapiens, A549, 72 h); 0.0064 µM with 22Rv1 cells (Homo sapiens, 22Rv1, 72 h); 0.0055 µM in the test with T47D cells (Homo sapiens, T47D, 72 h); 0.0026 µM with DU4475 cells (Homo sapiens, DU-4475, 72 h); 0.036 µM in the test on HT1197 cells (Homo sapiens, HT1197, 72 h).
For the compound `CN(C)C[C@H]1CC[C@H](Nc2c(C(=O)C3CC3)cnc3ccc(-c4cc(F)c(O)c(Cl)c4)nc23)CC1` [Example 5, (6-(3-Chloro-5-fluoro-4-hydroxyphenyl)-4-{trans-4-[(dimethylamino)methyl]cyclohexyl-amino}-1,5-naphthyridin-3-yl)(cyclopropyl)methanone dihydrochloride], the IC50 against MELK was found to be 0.0008 µM; in the test on A549 cells (Homo sapiens, A549, 72 h) it was 0.0061 µM; in the test on 22Rv1 cells (Homo sapiens, 22Rv1, 72 h) it was 0.0057 µM; with T47D cells (Homo sapiens, T47D, 72 h) it was 0.0029 µM; in the test with DU4475 cells (Homo sapiens, DU-4475, 72 h), 0.003 µM; in the test with HT1197 cells (Homo sapiens, HT1197, 72 h), 0.018 µM.
As to `CC(=O)c1cnc2ccc(-c3cc(F)c(O)c(Cl)c3)nc2c1N[C@H]1CC[C@H](CN(C)C)CC1` [Example 7, 1-{6-(3-Chloro-5-fluoro-4-hydroxyphenyl)-4-({trans-4-[(dimethylamino)methyl]cyclohexyl}-amino)-1,5-naphthyridin-3-yl}ethanone dihydrochloride], the IC50 is 0.0013 µM on MELK; 0.0097 µM with A549 cells (Homo sapiens, A549, 72 h); 0.0061 µM in the test on 22Rv1 cells (Homo sapiens, 22Rv1, 72 h); 0.0035 µM with T47D cells (Homo sapiens, T47D, 72 h); 0.0036 µM in the test on DU4475 cells (Homo sapiens, DU-4475, 72 h); 0.11 µM in the test on HT1197 cells (Homo sapiens, HT1197, 72 h).
In the case of `COc1cc(-c2ccc3ncc(C(C)=O)c(N[C@H]4CC[C@H](CN(C)C)CC4)c3n2)cc(Cl)c1O` [Example 8, 1-(6-(3-Chloro-4-hydroxy-5-methoxyphenyl)-4-{trans-4-[(dimethylamino)methyl]cyclohexyl-amino}-1,5-naphthyridin-3-yl)ethanone dihydrochloride], the IC50 on MELK turned out to be 0.0015 µM; in the test on A549 cells (Homo sapiens, A549, 72 h) it was 0.024 µM; with 22Rv1 cells (Homo sapiens, 22Rv1, 72 h), 0.044 µM; in the test with T47D cells (Homo sapiens, T47D, 72 h), 0.013 µM; with DU4475 cells (Homo sapiens, DU-4475, 72 h), 0.0064 µM; in the test with HT1197 cells (Homo sapiens, HT1197, 72 h), 0.24 µM.
Turning to `CC(=O)c1cnc2ccc(-c3cc(Cl)c(O)c(Cl)c3)nc2c1N[C@H]1CC[C@H](CCN(C)C)CC1` [Example 9, 1-[6-(3,5-Dichloro-4-hydroxyphenyl)-4-({trans-4-[2-(dimethylamino)ethyl]cyclohexyl}amino)-1,5-naphthyridin-3-yl]ethanone dihydrochloride], the IC50 was 0.0007 µM on MELK; 0.013 µM in the test with A549 cells (Homo sapiens, A549, 72 h); 0.011 µM with 22Rv1 cells (Homo sapiens, 22Rv1, 72 h); 0.0066 µM with T47D cells (Homo sapiens, T47D, 72 h); 0.0055 µM in the test with DU4475 cells (Homo sapiens, DU-4475, 72 h); 0.27 µM in the test on HT1197 cells (Homo sapiens, HT1197, 72 h).
Turning to `[2H]C([2H])([2H])N(C[C@H]1CC[C@H](Nc2c(C(C)=O)cnc3ccc(-c4cc(Cl)c(O)c(Cl)c4)nc23)CC1)C([2H])([2H])[2H]` [Example 28, 1-(6-(3,5-Dichloro-4-hydroxyphenyl)-4-(trans-4-((dimethylamino-d6)methyl)-cyclohexylamino)-1,5-naphthyridin-3-yl)ethanone dihydrochloride], the half-maximal inhibitory concentration (IC50) is 0.006 µM in the test on A549 cells (Homo sapiens, A549, 72 h); 0.0052 µM in the test on 22Rv1 cells (Homo sapiens, 22Rv1, 72 h); 0.004 µM in the test with T47D cells (Homo sapiens, T47D, 72 h); 0.0022 µM with DU4475 cells (Homo sapiens, DU-4475, 72 h); 0.14 µM with HT1197 cells (Homo sapiens, HT1197, 72 h).
`CC(=O)c1cnc2ccc(-c3cc(F)c(O)c(Cl)c3)nc2c1N[C@H]1CC[C@H](NC(=O)[C@@H]2CCCN2)CC1` [Example 76, (S)—N-{4-[3-Acetyl-6-(3-chloro-5-fluoro-4-hydroxyphenyl)-1,5-naphthyridin-trans-4-ylamino]-cyclohexyl}pyrrolidine-2-carboxamide dihydrochloride]: the IC50 turned out to be 0.32 µM with A549 cells (Homo sapiens, A549, 72 h); 0.073 µM in the test on 22Rv1 cells (Homo sapiens, 22Rv1, 72 h); 0.03 µM in the test with T47D cells (Homo sapiens, T47D, 72 h); 0.019 µM in the test with DU4475 cells (Homo sapiens, DU-4475, 72 h); 8.7 µM with HT1197 cells (Homo sapiens, HT1197, 72 h).
In the case of `CC(=O)c1cnc2ccc(-c3cc(Cl)c(O)c(Cl)c3)nc2c1NC[C@H]1CC[C@H](N(C)C)CC1` [Example 89, dihydrochloride], the half-inhibitory concentration (IC50) is 0.041 µM in the test on A549 cells (Homo sapiens, A549, 72 h); 0.028 µM in the test on 22Rv1 cells (Homo sapiens, 22Rv1, 72 h); 0.023 µM in the test on T47D cells (Homo sapiens, T47D, 72 h); 0.0063 µM with DU4475 cells (Homo sapiens, DU-4475, 72 h); 0.9 µM with HT1197 cells (Homo sapiens, HT1197, 72 h).
Turning to `CC(=O)c1cnc2ccc(-c3cc(Cl)c(O)c(Cl)c3)nc2c1N[C@H]1CC[C@@H](CN(C)C)CC1` [Example 94, 1-{6-(3,5-Dichloro-4-hydroxyphenyl)-4-({cis-4-[(dimethylamino)methyl]-cyclohexyl}amino)-1,5-naphthyridin-3-yl}ethanone dihydrochloride], the IC50 with A549 cells (Homo sapiens, A549, 72 h) is 0.039 µM; in the test on 22Rv1 cells (Homo sapiens, 22Rv1, 72 h) it was 0.028 µM; with T47D cells (Homo sapiens, T47D, 72 h), 0.02 µM; with DU4475 cells (Homo sapiens, DU-4475, 72 h), 0.0073 µM; in the test on HT1197 cells (Homo sapiens, HT1197, 72 h), 0.25 µM.
With `CC(C)C(=O)c1cnc2ccc(-c3cc(Cl)c(O)c(Cl)c3)nc2c1N[C@H]1CC[C@H](CN(C)C)CC1` [Example 216, 1-[6-(3,5-dichloro-5-4-hydroxyphenyl)-4-({trans-4-[(dimethylamino)methyl]cyclohexyl}amino)-1,5-naphthyridin-3-yl]-2-methylpropan-1-one dihydrochloride], the concentration for half-maximal inhibition (IC50) at MELK came to 0.0019 µM; in the test on A549 cells (Homo sapiens, A549, 72 h) it was 0.012 µM; with HT1197 cells (Homo sapiens, HT1197, 72 h), 0.025 µM.
Consider `CC(C)C(=O)c1cnc2ccc(-c3cc(F)c(O)c(Cl)c3)nc2c1N[C@H]1CC[C@H](CN(C)C)CC1` [Example 217, dihydrochloride], for which the concentration for half-maximal inhibition (IC50) against MELK worked out at 0.0018 µM; in the test on A549 cells (Homo sapiens, A549, 72 h) it was 0.021 µM; in the test with HT1197 cells (Homo sapiens, HT1197, 72 h), 0.055 µM.
